Read-outs that look alike come from different tables or passages of the source.
Columns and labels:
Experiment in all cases: biochemical
Assay type in all cases: biochemical
382 unique human kinases [1] = target: T1, 382 unique human kinases (Homo sapiens, UniProt O00444); settings: PLK4/SAK, 10 uM; for remaining activity at 10 µM: read-out: % Enzyme Activity (relative to DMSO controls)
T1 construct: purchased Reaction Biology (HotSpot contract assay)
T1 sequence (O00444 1-970): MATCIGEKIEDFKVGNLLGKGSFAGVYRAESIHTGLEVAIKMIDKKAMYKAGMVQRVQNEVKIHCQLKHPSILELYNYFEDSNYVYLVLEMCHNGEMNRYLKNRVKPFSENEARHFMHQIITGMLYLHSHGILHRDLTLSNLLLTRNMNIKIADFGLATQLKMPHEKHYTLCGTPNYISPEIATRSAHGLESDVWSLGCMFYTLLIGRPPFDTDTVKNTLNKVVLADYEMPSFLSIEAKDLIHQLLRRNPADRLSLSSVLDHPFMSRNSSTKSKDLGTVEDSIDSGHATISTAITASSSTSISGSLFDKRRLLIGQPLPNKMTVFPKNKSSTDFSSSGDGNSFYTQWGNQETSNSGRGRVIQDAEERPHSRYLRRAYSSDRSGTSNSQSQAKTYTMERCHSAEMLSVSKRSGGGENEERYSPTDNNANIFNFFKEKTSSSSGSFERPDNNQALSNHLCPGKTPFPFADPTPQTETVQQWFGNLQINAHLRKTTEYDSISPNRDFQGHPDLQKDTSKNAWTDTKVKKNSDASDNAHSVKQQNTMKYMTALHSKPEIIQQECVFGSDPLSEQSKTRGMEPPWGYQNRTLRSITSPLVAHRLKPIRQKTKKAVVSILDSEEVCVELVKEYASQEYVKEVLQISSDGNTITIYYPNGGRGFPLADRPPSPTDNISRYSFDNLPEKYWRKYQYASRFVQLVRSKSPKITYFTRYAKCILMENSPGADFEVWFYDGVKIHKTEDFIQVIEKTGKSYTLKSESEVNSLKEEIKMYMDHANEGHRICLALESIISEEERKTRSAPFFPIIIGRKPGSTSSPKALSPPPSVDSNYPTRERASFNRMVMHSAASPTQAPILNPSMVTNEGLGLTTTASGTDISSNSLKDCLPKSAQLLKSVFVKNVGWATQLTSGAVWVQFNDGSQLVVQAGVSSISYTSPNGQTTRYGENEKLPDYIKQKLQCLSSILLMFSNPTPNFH

382 unique human kinases [2] = target: T2, 382 unique human kinases (Homo sapiens, UniProt P07949, E762Q); settings: compound 10 uM; for remaining activity at 10 µM: read-out: % Enzyme Activity (relative to DMSO controls)
T2 construct: purchased Reaction Biology (HotSpot contract assay)
T2 sequence (P07949 29-1114 E762Q): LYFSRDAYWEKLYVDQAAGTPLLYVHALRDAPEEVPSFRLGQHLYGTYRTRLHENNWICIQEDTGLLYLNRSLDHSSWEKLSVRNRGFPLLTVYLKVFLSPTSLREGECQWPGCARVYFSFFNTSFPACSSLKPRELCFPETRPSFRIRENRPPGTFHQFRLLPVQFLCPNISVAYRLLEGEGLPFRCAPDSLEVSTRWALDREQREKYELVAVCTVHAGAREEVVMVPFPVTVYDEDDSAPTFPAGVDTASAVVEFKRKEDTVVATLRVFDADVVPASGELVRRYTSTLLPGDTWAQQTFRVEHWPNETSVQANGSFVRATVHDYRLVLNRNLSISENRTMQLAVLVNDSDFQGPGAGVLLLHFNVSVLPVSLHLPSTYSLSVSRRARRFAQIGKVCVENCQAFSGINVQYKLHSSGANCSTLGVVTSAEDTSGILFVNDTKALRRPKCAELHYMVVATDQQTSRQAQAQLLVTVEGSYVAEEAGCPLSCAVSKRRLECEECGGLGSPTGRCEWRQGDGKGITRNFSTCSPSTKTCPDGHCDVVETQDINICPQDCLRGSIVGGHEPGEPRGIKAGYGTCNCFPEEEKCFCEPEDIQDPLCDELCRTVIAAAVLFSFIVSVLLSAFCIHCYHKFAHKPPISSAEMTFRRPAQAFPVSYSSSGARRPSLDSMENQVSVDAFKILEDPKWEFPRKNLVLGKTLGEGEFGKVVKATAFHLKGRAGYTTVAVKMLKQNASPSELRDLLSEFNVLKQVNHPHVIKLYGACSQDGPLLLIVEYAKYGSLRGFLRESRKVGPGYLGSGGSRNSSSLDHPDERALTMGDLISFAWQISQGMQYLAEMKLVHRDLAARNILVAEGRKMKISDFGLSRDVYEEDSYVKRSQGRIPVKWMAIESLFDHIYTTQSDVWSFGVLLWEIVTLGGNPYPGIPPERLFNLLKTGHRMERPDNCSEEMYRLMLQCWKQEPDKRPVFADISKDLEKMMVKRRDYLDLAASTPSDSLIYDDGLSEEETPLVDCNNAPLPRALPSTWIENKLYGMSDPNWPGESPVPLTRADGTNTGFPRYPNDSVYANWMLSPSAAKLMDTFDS

382 unique human kinases [3] = target: T3, 382 unique human kinases (Homo sapiens, UniProt P07949, V804M); settings: RET (V804M), 10 uM; for remaining activity at 10 µM: read-out: % Enzyme Activity (relative to DMSO controls)
T3 construct: purchased Reaction Biology (HotSpot contract assay)
T3 sequence (P07949 29-1114 V804M): as the sequence (P07949 29-1114 E762Q) above, with Q734E, V776M counted along it

382 unique human kinases [4] = target: T4, 382 unique human kinases (Homo sapiens, UniProt Q92918); settings: kinase HPK1/MAP4K1, compound 10 uM; for remaining activity at 10 µM: read-out: % Enzyme Activity (relative to DMSO controls)
T4 construct: purchased Reaction Biology (HotSpot contract assay)
T4 sequence (Q92918 whole entry): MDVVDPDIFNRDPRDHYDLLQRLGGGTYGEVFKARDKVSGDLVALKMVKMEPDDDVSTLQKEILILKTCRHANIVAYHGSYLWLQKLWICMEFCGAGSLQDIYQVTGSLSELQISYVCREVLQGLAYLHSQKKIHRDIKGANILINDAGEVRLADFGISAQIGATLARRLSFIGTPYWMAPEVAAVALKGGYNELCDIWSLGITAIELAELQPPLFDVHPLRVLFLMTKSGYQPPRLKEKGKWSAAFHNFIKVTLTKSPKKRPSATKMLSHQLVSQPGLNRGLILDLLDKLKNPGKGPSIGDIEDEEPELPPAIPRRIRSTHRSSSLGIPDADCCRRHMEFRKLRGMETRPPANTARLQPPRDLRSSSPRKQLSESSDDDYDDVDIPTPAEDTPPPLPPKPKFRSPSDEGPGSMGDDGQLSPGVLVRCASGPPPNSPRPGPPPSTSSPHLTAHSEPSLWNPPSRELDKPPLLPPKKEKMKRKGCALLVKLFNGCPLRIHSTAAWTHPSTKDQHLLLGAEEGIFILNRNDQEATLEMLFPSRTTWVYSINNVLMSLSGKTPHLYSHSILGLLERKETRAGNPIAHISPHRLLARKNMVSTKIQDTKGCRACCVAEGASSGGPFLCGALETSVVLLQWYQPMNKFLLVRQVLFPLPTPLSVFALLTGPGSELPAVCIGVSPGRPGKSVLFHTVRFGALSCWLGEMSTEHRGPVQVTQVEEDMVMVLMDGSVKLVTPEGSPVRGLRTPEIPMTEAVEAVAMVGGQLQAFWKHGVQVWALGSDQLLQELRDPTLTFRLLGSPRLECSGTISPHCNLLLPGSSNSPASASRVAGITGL

382 unique human kinases [5] = target: T5, 382 unique human kinases (Homo sapiens, UniProt Q96QT4); settings: kinase TRPM7/CHAK1, compound 10 uM; for remaining activity at 10 µM: read-out: % Enzyme Activity (relative to DMSO controls)
T5 construct: purchased Reaction Biology (HotSpot contract assay)

382 unique human kinases [6] = target: T6, 382 unique human kinases (Homo sapiens, UniProt Q9Y243, E17K); settings: AKT3 (E17K), 10 uM; for remaining activity at 10 µM: read-out: % Enzyme Activity (relative to DMSO controls)
T6 construct: purchased Reaction Biology (HotSpot contract assay)

382 unique human kinases [7] = target: T7, 382 unique human kinases (Homo sapiens, UniProt O15146); settings: MUSK, [ATP] 15 µM, compound 10 uM; for remaining activity at 10 µM: read-out: % Enzyme Activity (relative to DMSO controls)
T7 construct: purchased Reaction Biology (HotSpot contract assay)
T7 sequence (O15146 24-869): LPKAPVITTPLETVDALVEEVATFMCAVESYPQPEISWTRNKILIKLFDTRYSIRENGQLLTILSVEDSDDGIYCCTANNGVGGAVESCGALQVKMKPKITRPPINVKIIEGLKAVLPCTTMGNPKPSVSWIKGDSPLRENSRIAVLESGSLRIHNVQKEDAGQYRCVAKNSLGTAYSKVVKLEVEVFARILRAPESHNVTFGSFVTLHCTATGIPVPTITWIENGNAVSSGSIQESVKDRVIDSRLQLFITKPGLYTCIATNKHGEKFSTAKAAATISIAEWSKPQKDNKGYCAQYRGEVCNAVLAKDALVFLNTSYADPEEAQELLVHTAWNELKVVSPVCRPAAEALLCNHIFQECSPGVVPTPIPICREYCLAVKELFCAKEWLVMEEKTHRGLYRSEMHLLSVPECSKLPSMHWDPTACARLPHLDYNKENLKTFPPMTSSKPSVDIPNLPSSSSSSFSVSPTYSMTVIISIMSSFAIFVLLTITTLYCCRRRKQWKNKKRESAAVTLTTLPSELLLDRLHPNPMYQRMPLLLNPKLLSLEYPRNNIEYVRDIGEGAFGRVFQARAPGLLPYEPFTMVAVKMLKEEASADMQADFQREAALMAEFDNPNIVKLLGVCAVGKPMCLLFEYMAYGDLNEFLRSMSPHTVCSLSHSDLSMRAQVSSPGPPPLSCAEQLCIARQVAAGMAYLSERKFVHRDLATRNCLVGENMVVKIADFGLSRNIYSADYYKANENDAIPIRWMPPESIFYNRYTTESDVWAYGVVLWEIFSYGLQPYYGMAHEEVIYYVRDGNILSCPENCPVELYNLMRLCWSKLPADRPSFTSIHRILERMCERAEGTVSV

382 unique human kinases [8] = target: T8, 382 unique human kinases (Homo sapiens, UniProt P07949, M918T); settings: RET (M918T), 10 uM; for remaining activity at 10 µM: read-out: % Enzyme Activity (relative to DMSO controls)
T8 construct: purchased Reaction Biology (HotSpot contract assay)
T8 sequence (P07949 29-1114 M918T): as the sequence (P07949 29-1114 E762Q) above, with Q734E, M890T counted along it

382 unique human kinases [9] = target: T9, 382 unique human kinases (Homo sapiens, UniProt P07949, S891A); settings: RET (S891A), [ATP] 5 µM, compound 10 uM; for remaining activity at 10 µM: read-out: % Enzyme Activity (relative to DMSO controls)
T9 construct: purchased Reaction Biology (HotSpot contract assay)
T9 sequence (P07949 29-1114 S891A): as the sequence (P07949 29-1114 E762Q) above, with Q734E, S863A counted along it

382 unique human kinases [10] = target: T10, 382 unique human kinases (Homo sapiens, UniProt P10721, D816H); settings: c-Kit (D816H), [ATP] 5 µM, compound 10 uM; for remaining activity at 10 µM: read-out: % Enzyme Activity (relative to DMSO controls)
T10 construct: purchased Reaction Biology (HotSpot contract assay)

382 unique human kinases [11] = target: T11, 382 unique human kinases (Homo sapiens, UniProt P10721, V560G); settings: c-Kit (V560G), [ATP] 20 µM, compound 10 uM; for remaining activity at 10 µM: read-out: % Enzyme Activity (relative to DMSO controls)
T11 construct: purchased Reaction Biology (HotSpot contract assay)

382 unique human kinases [12] = target: T12, 382 unique human kinases (Homo sapiens, UniProt Q5S007, R1441C); settings: LRRK2 (R1441C), [ATP] 50 µM, compound 10 uM; for remaining activity at 10 µM: read-out: % Enzyme Activity (relative to DMSO controls)
T12 construct: purchased Reaction Biology (HotSpot contract assay)
T12 sequence (Q5S007 whole entry R1441C): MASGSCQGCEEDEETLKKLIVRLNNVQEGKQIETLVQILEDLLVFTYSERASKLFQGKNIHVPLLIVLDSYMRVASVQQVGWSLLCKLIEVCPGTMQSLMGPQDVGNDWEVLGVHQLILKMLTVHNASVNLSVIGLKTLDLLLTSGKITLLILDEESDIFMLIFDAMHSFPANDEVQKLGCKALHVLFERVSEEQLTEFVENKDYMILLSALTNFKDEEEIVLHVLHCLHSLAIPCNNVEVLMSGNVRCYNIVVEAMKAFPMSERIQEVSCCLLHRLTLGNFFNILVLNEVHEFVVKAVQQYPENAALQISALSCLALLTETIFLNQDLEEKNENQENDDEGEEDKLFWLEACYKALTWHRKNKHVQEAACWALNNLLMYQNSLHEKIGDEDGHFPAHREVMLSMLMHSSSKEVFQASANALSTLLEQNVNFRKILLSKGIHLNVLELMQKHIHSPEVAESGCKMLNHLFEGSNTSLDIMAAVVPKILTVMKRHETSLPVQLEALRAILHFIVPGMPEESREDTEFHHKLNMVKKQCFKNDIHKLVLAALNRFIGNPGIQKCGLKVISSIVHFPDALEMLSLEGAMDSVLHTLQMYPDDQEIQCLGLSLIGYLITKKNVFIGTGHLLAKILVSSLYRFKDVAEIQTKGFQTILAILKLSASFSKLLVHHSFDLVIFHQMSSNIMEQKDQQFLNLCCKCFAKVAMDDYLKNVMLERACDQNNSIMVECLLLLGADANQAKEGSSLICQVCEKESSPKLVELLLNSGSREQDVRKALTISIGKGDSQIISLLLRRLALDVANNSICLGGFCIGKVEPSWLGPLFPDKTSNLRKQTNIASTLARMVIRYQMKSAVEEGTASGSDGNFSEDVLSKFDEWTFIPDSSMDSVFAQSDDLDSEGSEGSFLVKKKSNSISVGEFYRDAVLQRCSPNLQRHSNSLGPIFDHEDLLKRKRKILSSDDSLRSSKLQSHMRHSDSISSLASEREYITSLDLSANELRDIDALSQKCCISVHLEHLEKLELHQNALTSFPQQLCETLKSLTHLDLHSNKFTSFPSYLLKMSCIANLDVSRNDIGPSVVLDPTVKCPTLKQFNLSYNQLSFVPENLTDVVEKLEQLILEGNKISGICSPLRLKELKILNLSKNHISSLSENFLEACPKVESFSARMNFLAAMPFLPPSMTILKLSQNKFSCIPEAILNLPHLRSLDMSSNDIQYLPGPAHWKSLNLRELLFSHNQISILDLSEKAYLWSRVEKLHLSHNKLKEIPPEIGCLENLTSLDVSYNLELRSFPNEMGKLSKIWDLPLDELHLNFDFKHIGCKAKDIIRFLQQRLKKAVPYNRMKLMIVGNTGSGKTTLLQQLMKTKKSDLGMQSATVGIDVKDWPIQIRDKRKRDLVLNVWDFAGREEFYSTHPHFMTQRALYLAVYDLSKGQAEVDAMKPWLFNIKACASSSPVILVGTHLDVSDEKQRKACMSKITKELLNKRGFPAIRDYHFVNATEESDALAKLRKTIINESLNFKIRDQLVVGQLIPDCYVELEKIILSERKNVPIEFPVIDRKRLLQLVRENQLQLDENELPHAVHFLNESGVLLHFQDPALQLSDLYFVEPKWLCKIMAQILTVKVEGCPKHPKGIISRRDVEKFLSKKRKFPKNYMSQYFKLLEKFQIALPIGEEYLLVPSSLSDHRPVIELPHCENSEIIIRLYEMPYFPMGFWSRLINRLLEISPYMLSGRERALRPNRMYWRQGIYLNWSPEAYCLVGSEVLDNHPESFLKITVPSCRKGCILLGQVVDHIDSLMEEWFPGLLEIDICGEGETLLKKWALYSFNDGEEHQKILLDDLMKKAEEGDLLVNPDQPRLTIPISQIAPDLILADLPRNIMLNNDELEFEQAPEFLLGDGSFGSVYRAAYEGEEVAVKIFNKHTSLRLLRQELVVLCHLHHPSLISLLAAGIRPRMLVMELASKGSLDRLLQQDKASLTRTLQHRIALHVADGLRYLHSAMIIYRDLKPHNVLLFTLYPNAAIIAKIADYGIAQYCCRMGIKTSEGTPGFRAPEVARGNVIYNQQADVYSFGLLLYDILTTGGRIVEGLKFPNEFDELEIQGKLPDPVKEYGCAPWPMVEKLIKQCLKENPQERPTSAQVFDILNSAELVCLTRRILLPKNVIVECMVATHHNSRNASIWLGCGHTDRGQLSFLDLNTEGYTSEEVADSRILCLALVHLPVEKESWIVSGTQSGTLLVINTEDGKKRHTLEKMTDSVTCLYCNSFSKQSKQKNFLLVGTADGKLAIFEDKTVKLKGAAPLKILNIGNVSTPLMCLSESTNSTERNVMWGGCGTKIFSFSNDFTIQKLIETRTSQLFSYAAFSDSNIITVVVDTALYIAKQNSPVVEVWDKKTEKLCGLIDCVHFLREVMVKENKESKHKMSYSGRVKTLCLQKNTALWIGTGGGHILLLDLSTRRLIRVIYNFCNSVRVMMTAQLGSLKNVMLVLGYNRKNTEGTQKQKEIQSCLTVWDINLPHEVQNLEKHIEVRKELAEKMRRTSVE

382 unique human kinases [13] = target: T13, 382 unique human kinases (Homo sapiens, UniProt Q9P1W9); settings: PIM2, [ATP] 20 µM, compound 10 uM; for remaining activity at 10 µM: read-out: % Enzyme Activity (relative to DMSO controls)
T13 construct: purchased Reaction Biology (HotSpot contract assay)
T13 sequence (Q9P1W9 whole entry): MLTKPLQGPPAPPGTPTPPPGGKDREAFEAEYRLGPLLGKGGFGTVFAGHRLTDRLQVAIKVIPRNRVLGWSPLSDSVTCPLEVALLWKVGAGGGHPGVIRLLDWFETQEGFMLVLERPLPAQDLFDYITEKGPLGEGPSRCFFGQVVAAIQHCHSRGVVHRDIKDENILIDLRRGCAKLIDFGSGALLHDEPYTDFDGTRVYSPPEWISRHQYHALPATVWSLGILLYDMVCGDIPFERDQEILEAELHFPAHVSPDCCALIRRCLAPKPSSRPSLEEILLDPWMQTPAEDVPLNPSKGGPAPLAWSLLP

Row | Compound | remaining activity at 10 µM (382 unique human kinases [1]) | remaining activity at 10 µM (382 unique human kinases [2]; kinase RET (E762Q)) | remaining activity at 10 µM (382 unique human kinases [3]) | remaining activity at 10 µM (382 unique human kinases [4]) | remaining activity at 10 µM (382 unique human kinases [5]) | remaining activity at 10 µM (382 unique human kinases [6]) | remaining activity at 10 µM (382 unique human kinases [7]) | remaining activity at 10 µM (382 unique human kinases [8]) | remaining activity at 10 µM (382 unique human kinases [9]) | remaining activity at 10 µM (382 unique human kinases [10]) | remaining activity at 10 µM (382 unique human kinases [11]) | remaining activity at 10 µM (382 unique human kinases [12]) | remaining activity at 10 µM (382 unique human kinases [13]) | further results
1 | CC(C)c1cc(-c2n[nH]c(=O)n2-c2ccc3c(ccn3C)c2)c(O)cc1O [Ganetespib (STA9090)] | 78.2% | 93.8% | 81% | 97.5% | 92.2% | 77.7% | – | – | – | – | – | – | – | remaining activity at 10 µM (382 unique human kinases [2]; […]): 94.2%
2 | CC(C)c1cc(-c2n[nH]c(=O)n2-c2ccc3c(ccn3C)c2)c(O)cc1O [Ganetespib] | – | – | – | – | – | – | 51.1% | 97.7% | 20.2% | 46.4% | 58.9% | 50.7% | 28.8% | –
3 | CCNC(=O)c1noc(-c2cc(C(C)C)c(O)cc2O)c1-c1ccc(CN2CCOCC2)cc1 [Luminespib (AUY-922)] | 89.6% | 96.6% | 98.7% | 121% | 101% | 84.2% | – | – | – | – | – | – | – | % Enzyme Activity (relative to DMSO controls) (382 unique human kinases [1]): 86.84%; % Enzyme Activity (relative to DMSO controls) (382 unique human kinases [2]; kinase RET (E762Q)): 89.64%; % Enzyme Activity (relative to DMSO controls) (382 unique human kinases [3]): 97.95%; % Enzyme Activity (relative to DMSO controls) (382 unique human kinases [4]): 120.08%; % Enzyme Activity (relative to DMSO controls) (382 unique human kinases [5]): 98.95%; % Enzyme Activity (relative to DMSO controls) (382 unique human kinases [6]): 79.36%
4 | CCNC(=O)c1noc(-c2cc(C(C)C)c(O)cc2O)c1-c1ccc(CN2CCOCC2)cc1 [Luminespib] | – | – | – | – | – | – | 90.6% | 97.5% | 89.3% | 84.3% | 111% | 88.8% | 106% | % Enzyme Activity (relative to DMSO controls) (382 unique human kinases [7]): 89.25%; % Enzyme Activity (relative to DMSO controls) (382 unique human kinases [8]): 96.83%; % Enzyme Activity (relative to DMSO controls) (382 unique human kinases [9]): 88.26%; % Enzyme Activity (relative to DMSO controls) (382 unique human kinases [10]): 83.99%; % Enzyme Activity (relative to DMSO controls) (382 unique human kinases [11]): 109.32%; % Enzyme Activity (relative to DMSO controls) (382 unique human kinases [12]): 88.51%; % Enzyme Activity (relative to DMSO controls) (382 unique human kinases [13]): 103.60%

From publication PMC8550792, “Evolution of kinase polypharmacology across HSP90 drug discovery” (Cell Chemical Biology, 2021)
